# Results taken from patent US3974268A, “Bone-seeking technetium-99m imidodiphosphonate complex” (priority 1975, dated 1976).
# Read-outs that look alike come from different tables or passages of the source.
# Legend:
# [1] = cited from earlier work
# [2] = Acute toxicity (LD 50/30) by serial injection of graduated doses; type: in vivo; settings: mice and rabbits
# Description: A toxicological study was conducted in both mice and rabbits by serial injection of graduated doses and the acute toxicity of imidodiphosphonate (LD 50/30) was determined to be 45-50 mg imidodiphosphonic acid per kilogram body weight.
# [3] = 2 hours, rabbits, derived from Subramanian et al references
Compound,"99mTc/85Sr ratio calculated from specific concentrations, Average Bone [1, 3]","99mTc/85Sr ratio calculated from specific concentrations, Blood [1, 3]","99mTc/85Sr ratio calculated from specific concentrations, Femur [1, 3]","99mTc/85Sr ratio calculated from specific concentrations, Kidney [1, 3]","99mTc/85Sr ratio calculated from specific concentrations, Liver [1, 3]","99mTc/85Sr ratio calculated from specific concentrations, Marrow [1, 3]","99mTc/85Sr ratio calculated from specific concentrations, Muscle [1, 3]","99mTc/85Sr ratio calculated from specific concentrations, Pelvis [1, 3]","99mTc/85Sr ratio calculated from specific concentrations, Spine [1, 3]","99mTc/85Sr ratio calculated from specific concentrations, Tibia [1, 3]",other results
"O=P(O)(O)CN(CCN(CP(=O)(O)O)CP(=O)(O)O)CCN(CP(=O)(O)O)CP(=O)(O)O (99mTc complex, metal not drawn) [DTPMP, Diethylene Triamino Penta (Methylene Phosphonate)]",–,–,–,–,–,–,–,–,–,–,"99mTc/85Sr ratio calculated from specific concentrations, Average Bone ([1]; rabbit, in vivo): 0.467; 99mTc/85Sr ratio calculated from specific concentrations, Blood ([1]; rabbit, in vivo): 0.461; 99mTc/85Sr ratio calculated from specific concentrations, Femur ([1]; rabbit, in vivo): 0.419; 99mTc/85Sr ratio calculated from specific concentrations, Kidney ([1]; rabbit, in vivo): 3.82; 99mTc/85Sr ratio calculated from specific concentrations, Liver ([1]; rabbit, in vivo): 0.544; 99mTc/85Sr ratio calculated from specific concentrations, Marrow ([1]; rabbit, in vivo): 0.547; 99mTc/85Sr ratio calculated from specific concentrations, Muscle ([1]; rabbit, in vivo): 0.221; 99mTc/85Sr ratio calculated from specific concentrations, Pelvis ([1]; rabbit, in vivo): 0.627; 99mTc/85Sr ratio calculated from specific concentrations, Spine ([1]; rabbit, in vivo): 0.415; 99mTc/85Sr ratio calculated from specific concentrations, Tibia ([1]; rabbit, in vivo): 0.384"
"O=P(O)(O)CN(CCCCCCN(CP(=O)(O)O)CP(=O)(O)O)CP(=O)(O)O (99mTc complex, metal not drawn) [HMDTMP, Hexamethylene Diamino Tetra (Methylene Phosphonate)]",0.456,0.703,0.434,7.06,0.855,0.713,0.407,0.516,0.428,0.437,–
O=P(O)(O)OP(=O)(O)O [Pyro Phosphate],–,–,–,–,–,–,–,–,–,–,"99mTc/85Sr ratio calculated from specific concentrations, Average Bone ([1]; rabbit, in vivo): 0.812; 99mTc/85Sr ratio calculated from specific concentrations, Blood ([1]; rabbit, in vivo): 0.703; 99mTc/85Sr ratio calculated from specific concentrations, Femur ([1]; rabbit, in vivo): 0.710; 99mTc/85Sr ratio calculated from specific concentrations, Kidney ([1]; rabbit, in vivo): 2.81; 99mTc/85Sr ratio calculated from specific concentrations, Liver ([1]; rabbit, in vivo): 0.779; 99mTc/85Sr ratio calculated from specific concentrations, Marrow ([1]; rabbit, in vivo): 0.726; 99mTc/85Sr ratio calculated from specific concentrations, Muscle ([1]; rabbit, in vivo): 0.365; 99mTc/85Sr ratio calculated from specific concentrations, Pelvis ([1]; rabbit, in vivo): 0.918; 99mTc/85Sr ratio calculated from specific concentrations, Spine ([1]; rabbit, in vivo): 0.827; 99mTc/85Sr ratio calculated from specific concentrations, Tibia ([1]; rabbit, in vivo): 0.694"
Amino Ethylne Diphosphonate [AEDP],0.648,0.416,0.641,3.71,0.766,0.852,0.135,0.693,0.618,0.641,–
Ethylene Hydroxy Diphosphonate [EHDP],0.832,0.362,0.796,3.53,0.954,0.814,0.172,0.913,0.801,0.798,–
Poly Phosphate,0.87,1.48,0.826,9.46,2.61,2.95,0.623,1.01,0.82,0.66,–
imidodiphosphonic acid [imidodiphosphonate],–,–,–,–,–,–,–,–,–,–,acute toxicity (LD 50/30) [2]: 45-50 mg imidodiphosphonic acid per kilogram body weight
